Source: ChEMBL document CHEMBL1201862, “PubChem BioAssay data set” (2004)
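Following 48 hours of exposure in 96-well plates, responses at five concentrations were used to interpolate endpoints linearly. GI50 marks 50% less growth.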 Activity calls are given as the source filed them. Cut-off read from the data, not from the text of the source: active = GI50 up to about 1.1 µM and inactive = higher.

Experiments:
Experiment in all cases: NCI-60 cell line screen, 48 h
KM12 = tested on: KM12
HOP-92 = tested on: HOP-92
HCC 2998 = tested on: HCC 2998
MCF7 = tested on: MCF7
MOLT-4 = tested on: MOLT-4
SNB-19 = tested on: SNB-19
SNB-75 = tested on: SNB-75
HOP-62 = tested on: HOP-62
EKVX = tested on: EKVX
SK-MEL-5 = tested on: SK-MEL-5
ACHN = tested on: ACHN
UACC-62 = tested on: UACC-62
UACC-257 = tested on: UACC-257
NCI-H23 = tested on: NCI-H23
M14 = tested on: M14
COLO 205 = tested on: COLO 205
NCI-H522 = tested on: NCI-H522
SF-295 = tested on: SF-295
CCRF-CEM = tested on: CCRF-CEM

Measured: GI50

O=C(CC(=O)n1nc(-c2ccccc2)c(/N=N/c2ccccc2C(=O)O)c1-c1ccccc1)Nc1ccc(Cl)cc1
inactive: KM12 > 100 µM | HOP-92 5.9 µM | HCC 2998 34.4 µM | MCF7 30.3 µM | MOLT-4 5.57 µM | SNB-19 21.7 µM | SNB-75 27.9 µM | HOP-62 19.6 µM | EKVX 30.7 µM | SK-MEL-5 42 µM | ACHN 33.5 µM | UACC-62 77.1 µM | UACC-257 32 µM | NCI-H23 20.5 µM | M14 55.8 µM | COLO 205 50.7 µM

CC1=NOC(=O)/C1=C/c1ccccc1O
inactive: KM12 > 100 µM | HOP-92 > 100 µM | HCC 2998 > 100 µM | NCI-H522 > 100 µM | SF-295 > 100 µM | MOLT-4 > 100 µM | SNB-19 > 100 µM | SNB-75 > 100 µM | HOP-62 > 100 µM | EKVX > 100 µM | SK-MEL-5 > 100 µM | ACHN > 100 µM | UACC-62 > 100 µM | CCRF-CEM > 100 µM | UACC-257 > 100 µM | NCI-H23 > 100 µM | M14 > 100 µM | COLO 205 > 100 µM

CCn1c2c(c3ccccc31)[C@@H](c1ccc(Cl)cc1)CC1C(=O)N(c3ccccc3)C(=O)C21 (some centres undefined)
inactive: KM12 > 100 µM | HOP-92 27.7 µM | HCC 2998 86.9 µM | NCI-H522 80.2 µM | SF-295 59.3 µM | MOLT-4 42.7 µM | SNB-19 > 100 µM | SNB-75 71.9 µM | HOP-62 85.5 µM | EKVX > 100 µM | SK-MEL-5 > 100 µM | ACHN 58.6 µM | UACC-62 51.2 µM | CCRF-CEM 63.2 µM | UACC-257 > 100 µM | NCI-H23 95.3 µM | M14 > 100 µM | COLO 205 > 100 µM

CCOC(=O)CCC(NC(=O)C(CCC(=O)OCC)NC(=O)C(Cc1ccc([N+](=O)[O-])cc1)NC(C)=O)C(=O)NNC(=O)OC(C)(C)C (centres undefined)
inactive: KM12 > 100 µM | HOP-92 > 100 µM | HCC 2998 > 100 µM | MCF7 > 100 µM | MOLT-4 > 100 µM | SNB-19 > 100 µM | SNB-75 > 100 µM | HOP-62 > 100 µM | EKVX > 100 µM | SK-MEL-5 > 100 µM | ACHN > 100 µM | UACC-62 > 100 µM | UACC-257 > 100 µM | NCI-H23 65.6 µM | M14 > 100 µM | COLO 205 > 100 µM

COC(=O)Nc1nc2cc(Br)ccc2[nH]1
inactive: KM12 9.29 µM | HOP-92 > 100 µM | HCC 2998 33.6 µM | NCI-H522 14.4 µM | SF-295 30.7 µM | MOLT-4 53.8 µM | SNB-19 > 10 µM | SNB-75 56 µM | HOP-62 57.3 µM | EKVX > 100 µM | SK-MEL-5 8.75 µM | ACHN 95.5 µM | UACC-62 74.5 µM | CCRF-CEM 32.2 µM | UACC-257 > 100 µM | NCI-H23 32.7 µM | M14 43.9 µM | COLO 205 23.8 µM

CCOc1ccccc1/N=C(/NC(=O)CC)SC
inactive: KM12 > 10 µM | HOP-92 > 10 µM | HCC 2998 > 10 µM | NCI-H522 > 10 µM | SF-295 > 10 µM | MOLT-4 68.4 µM | SNB-19 > 10 µM | SNB-75 67.6 µM | HOP-62 > 10 µM | EKVX > 10 µM | SK-MEL-5 > 10 µM | ACHN > 10 µM | UACC-62 > 10 µM | CCRF-CEM 64.6 µM | UACC-257 > 10 µM | NCI-H23 70.5 µM | M14 > 10 µM | COLO 205 > 10 µM
